Results from US8592629B2, “Sulfonamide derivatives as Nav 1.7 inhibitors” (Pfizer Limited, priority 2010, dated 2013).

Target: T1, Nav1.7 (or SCN9A) channel (Homo sapiens, UniProt Q15858)
T1 construct: expressed in transfected cells
Assay: Nav1.7 (hSCN9A) block in HEK cells, PatchXpress 7000 automated electrophysiology, estimated IC50 (EIC50)
Format: cell-based
Settings: PatchXpress assay; HEK cells stably transfected with hSCN9A, voltage-clamped at V1/2 of inactivation
In short: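 Stable hSCN9A HEK cells voltage-clamped at empirically determined inactivation V1/2 (8 s prepulse), current activated by 20 msec step to 0 mV; % inhibition from current before vs after compound. EIC50 derived from single-point data as concentration × (100−%inhibition)/%inhibition, excluding <20% and >80% inhibition; PatchXpress unless stated.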

T1 sequence (Q15858 whole entry): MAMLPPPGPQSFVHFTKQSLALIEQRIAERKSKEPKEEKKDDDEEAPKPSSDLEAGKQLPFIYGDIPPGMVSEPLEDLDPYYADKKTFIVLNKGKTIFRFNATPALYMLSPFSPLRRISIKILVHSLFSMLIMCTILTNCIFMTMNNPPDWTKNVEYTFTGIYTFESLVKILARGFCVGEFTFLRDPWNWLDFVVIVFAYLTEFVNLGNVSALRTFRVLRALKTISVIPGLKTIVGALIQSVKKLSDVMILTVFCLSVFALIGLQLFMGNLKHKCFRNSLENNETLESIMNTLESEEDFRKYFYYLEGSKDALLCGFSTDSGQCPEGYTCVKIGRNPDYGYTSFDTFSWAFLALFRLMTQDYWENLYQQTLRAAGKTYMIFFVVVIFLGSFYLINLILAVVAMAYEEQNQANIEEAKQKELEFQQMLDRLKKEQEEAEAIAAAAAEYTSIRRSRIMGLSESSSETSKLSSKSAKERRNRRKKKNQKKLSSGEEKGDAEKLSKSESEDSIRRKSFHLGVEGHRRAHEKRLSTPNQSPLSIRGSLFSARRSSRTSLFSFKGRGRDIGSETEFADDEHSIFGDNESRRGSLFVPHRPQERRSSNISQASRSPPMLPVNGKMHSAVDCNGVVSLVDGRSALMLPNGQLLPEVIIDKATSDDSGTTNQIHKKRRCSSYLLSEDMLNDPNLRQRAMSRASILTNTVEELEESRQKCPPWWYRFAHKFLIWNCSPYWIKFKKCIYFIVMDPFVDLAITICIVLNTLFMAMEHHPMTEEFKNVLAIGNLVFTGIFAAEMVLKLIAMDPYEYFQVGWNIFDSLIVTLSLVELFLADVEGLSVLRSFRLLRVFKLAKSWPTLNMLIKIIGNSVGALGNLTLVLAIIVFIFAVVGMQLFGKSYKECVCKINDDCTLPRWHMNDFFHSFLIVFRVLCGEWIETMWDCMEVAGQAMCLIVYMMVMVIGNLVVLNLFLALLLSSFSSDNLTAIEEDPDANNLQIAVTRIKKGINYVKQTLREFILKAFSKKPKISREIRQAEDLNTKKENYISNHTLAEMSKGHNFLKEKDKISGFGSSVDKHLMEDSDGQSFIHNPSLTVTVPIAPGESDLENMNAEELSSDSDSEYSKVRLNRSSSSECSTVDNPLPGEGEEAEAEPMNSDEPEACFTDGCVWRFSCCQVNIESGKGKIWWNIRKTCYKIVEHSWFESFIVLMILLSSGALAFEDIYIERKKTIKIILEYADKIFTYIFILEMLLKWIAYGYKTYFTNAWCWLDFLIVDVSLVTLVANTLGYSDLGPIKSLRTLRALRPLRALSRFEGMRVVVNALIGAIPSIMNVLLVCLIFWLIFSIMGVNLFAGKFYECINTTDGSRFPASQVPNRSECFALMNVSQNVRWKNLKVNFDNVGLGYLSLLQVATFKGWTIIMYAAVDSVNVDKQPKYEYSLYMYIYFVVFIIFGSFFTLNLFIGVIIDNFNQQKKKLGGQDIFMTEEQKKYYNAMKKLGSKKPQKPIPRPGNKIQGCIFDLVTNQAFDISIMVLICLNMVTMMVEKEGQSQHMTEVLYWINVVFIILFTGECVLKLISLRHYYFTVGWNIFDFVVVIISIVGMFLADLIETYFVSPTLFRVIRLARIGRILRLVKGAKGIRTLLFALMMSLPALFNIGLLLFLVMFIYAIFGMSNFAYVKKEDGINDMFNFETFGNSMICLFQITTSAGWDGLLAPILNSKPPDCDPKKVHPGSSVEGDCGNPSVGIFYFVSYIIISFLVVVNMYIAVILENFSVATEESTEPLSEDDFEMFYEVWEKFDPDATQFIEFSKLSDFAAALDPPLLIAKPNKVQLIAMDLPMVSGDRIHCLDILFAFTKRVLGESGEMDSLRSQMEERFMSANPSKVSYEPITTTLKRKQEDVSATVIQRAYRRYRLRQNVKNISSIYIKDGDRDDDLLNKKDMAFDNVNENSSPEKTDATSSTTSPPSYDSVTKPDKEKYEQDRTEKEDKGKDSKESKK

| Compound | IC50 |
| --- | --- |
| CS(=O)(=O)NC(=O)c1cc(Cl)c(Oc2cnc(C3CC3)c(Cl)c2)cc1Cl [Example 91, 2,5-Dichloro-4-(5-chloro-6-cyclopropylpyridin-3-yloxy)-N-(methylsulfonyl)benzamide] | 680 nM |
| CS(=O)(=O)NC(=O)c1cc(F)c(Oc2ccc(C(F)(F)F)cn2)cc1F [Example 194, 2,5-difluoro-N-(methylsulfonyl)-4-{[5-(trifluoromethyl)pyridin-2-yl]oxy}benzamide] | 3100 nM |
| CNc1ncc(Oc2cc(F)c(C(=O)NS(C)(=O)=O)cc2F)cc1Cl [Example 137, 4-{[5-chloro-6-(methylamino)pyridin-3-yl]oxy}-2,5-difluoro-N-(methylsulfonyl)benzamide] | 3200 nM |
| COc1cc(Oc2cnc(OC(C)C)c(Cl)c2)ccc1C(=O)NS(C)(=O)=O [Example 86, 4-[(5-chloro-6-isopropoxypyridin-3-yl)oxy]-2-methoxy-N-(methylsulfonyl)benzamide] | 7200 nM |
| CC(C)COc1ncc(Oc2ccc(C(=O)NS(C)(=O)=O)cc2C#N)cc1Cl [Example 1, 4-[(5-Chloro-6-isobutoxypyridin-3-yl)oxy]-3-cyano-N-(methylsulfonyl)benzamide] | 160 nM |
| CC(C)Oc1ncc(Oc2cc(F)c(C(=O)NS(C)(=O)=O)cc2F)cc1F [Example 71, 2,5-difluoro-4-[(5-fluoro-6-isopropoxypyridin-3-yl)oxy]-N-(methylsulfonyl)benzamide] | 1700 nM |
| CS(=O)(=O)NC(=O)c1ccc(Oc2cnc(C(F)(F)F)c(Cl)c2)cc1 [Example 9, 4-{[5-Chloro-6-(trifluoromethyl)pyridin-3-yl]oxy}-N-(methylsulfonyl)benzamide] | > 1000 nM |
| CC(C)Cc1ncc(Oc2cc(F)c(C(=O)NS(C)(=O)=O)cc2F)cc1Cl [Example 49, 4-[(5-chloro-6-isobutylpyridin-3-yl)oxy]-2,5-difluoro-N-(methylsulfonyl)benzamide] | 760 nM |
| CS(=O)(=O)NC(=O)c1cc(F)c(Oc2cnc(OC3CCC3)c(Cl)c2)cc1F [Example 16, 4-(5-Chloro-6-cyclobutoxypyridin-3-yloxy)-2,5-difluoro-N-(methylsulfonyl)benzamide] | 130 nM |
| CC(C)Oc1ccc(Oc2cc(F)c(C(=O)NS(C)(=O)=O)cc2F)cn1 [Example 47, 2,5-difluoro-4-[(6-isopropoxypyridin-3-yl)oxy]-N-(methylsulfonyl)benzamide] | 680 nM |
| CC(C)(C)Oc1ncc(Oc2cc(F)c(C(=O)NS(C)(=O)=O)cc2Cl)cc1Cl [Example 101, 4-[(6-tert-butoxy-5-chloropyridin-3-yl)oxy]-5-chloro-2-fluoro-N-(methylsulfonyl)benzamide] | 34 nM |
| COC[C@H](C)Nc1ncc(Oc2cc(F)c(C(=O)NS(C)(=O)=O)cc2F)cc1Cl [Example 136, 4-[(5-chloro-6-{[(1S)-2-methoxy-1-methylethyl]amino}pyridin-3-yl)oxy]-2,5-difluoro-N-(methylsulfonyl)benzamide] | 890 nM |
| CS(=O)(=O)NC(=O)c1cc(F)c(Oc2ccc(Cl)c3cccnc23)cc1F [Example 87, 4-[(5-chloroquinolin-8-yl)oxy]-2,5-difluoro-N-(methylsulfonyl)benzamide] | > 3000 nM |
| COCC1CCCN1c1ncc(Oc2cc(F)c(C(=O)NS(C)(=O)=O)cc2F)cc1Cl (stereo not shown) [Example 121, 4-({5-chloro-6-[2-(methoxymethyl)pyrrolidin-1-yl]pyridin-3-yl}oxy)-2,5-difluoro-N-(methylsulfonyl)benzamide] | 680 nM |

More lines, now with the values ahead:

| IC50 | Compound |
| --- | --- |
| 120 nM | CC(Oc1ncc(Oc2cc(F)c(C(=O)NS(C)(=O)=O)cc2F)cc1Cl)C(F)(F)F (stereo not shown) [Example 12, 4-{[5-Chloro-6-(2,2,2-trifluoro-1-methylethoxy)pyridin-3-yl]oxy}-2,5-difluoro-N-(methylsulfonyl)benzamide] |
| 19 nM | CS(=O)(=O)NC(=O)c1cc(Cl)c(Oc2cnc(OCC(F)(F)C(F)F)c(Cl)c2)cc1F [Example 22, 5-chloro-4-{[5-chloro-6-(2,2,3,3-tetrafluoropropoxy)pyridin-3-yl]oxy}-2-fluoro-N-(methanesulfonyl)benzamide] |
| 160 nM | C[C@@H]1CCCN1c1ncc(Oc2cc(F)c(C(=O)NS(C)(=O)=O)cc2F)cc1Cl [Example 132, 4-({5-chloro-6-[(2R)-2-methylpyrrolidin-1-yl]pyridin-3-yl}oxy)-2,5-difluoro-N-(methylsulfonyl)benzamide] |
| 73 nM | CS(=O)(=O)NC(=O)c1cc(Cl)c(Oc2cnc(N3CC(F)(F)C3)c(Cl)c2)cc1F [Example 96, 5-Chloro-4-(5-chloro-6-(3,3-difluoroazetidin-1-yl)pyridin-3-yloxy)-2-fluoro-N-(methylsulfonyl)benzamide] |
| 270 nM | CC(C)(C)c1ncc(Oc2cc(F)c(C(=O)NS(C)(=O)=O)cc2F)cc1Cl [Example 51, 4-[(6-tert-butyl-5-chloropyridin-3-yl)oxy]-2,5-difluoro-N-(methylsulfonyl)benzamide] |
| 190 nM | [2H]C(C)(C)Oc1ncc(Oc2cc(F)c(C(=O)NS(C)(=O)=O)cc2F)cc1Cl [Example 41, 4-({5-chloro-6-[2-d1-propan-2-yloxy]pyridin-3-yl}oxy)-2,5-difluoro-N-(methylsulfonyl)benzamide] |
| 100 nM | CS(=O)(=O)NC(=O)c1cc(Cl)c(Oc2cnc(C3CC3)c(OC(F)(F)F)c2)cc1F [Example 110, 5-chloro-4-(6-cyclopropyl-5-(trifluoromethoxy)pyridin-3-yloxy)-2-fluoro-N-(methylsulfonyl)benzamide] |
| 130 nM | [2H]C([2H])([2H])C([2H])(Oc1ncc(Oc2cc(F)c(C(=O)NS(C)(=O)=O)cc2F)cc1Cl)C([2H])([2H])[2H] [Example 40, -({5-chloro-6-[d7-propan-2-yloxy]pyridin-3-yl}oxy)-2,5-difluoro-N-(methylsulfonyl)benzamide] |
| 220 nM | CCN(CC)c1ncc(Oc2cc(F)c(C(=O)NS(C)(=O)=O)cc2F)cc1Cl [Example 150, 4-{[5-chloro-6-(diethylamino)pyridin-3-yl]oxy}-2,5-difluoro-N-(methylsulfonyl)benzamide] |
| 240 nM | CS(=O)(=O)NC(=O)c1cc(Cl)c(Oc2cnc(-c3ccccc3)c(Cl)c2)cc1F [Example 108, 5-chloro-4-[(5-chloro-6-phenylpyridin-3-yl)oxy]-2-fluoro-N-(methylsulfonyl)benzamide] |
| 470 nM | CS(=O)(=O)NC(=O)c1cc(Cl)c(Cc2cnc(C3CC3)c(Cl)c2)cc1F [Example 93, 5-chloro-4-((5-chloro-6-cyclopropylpyridin-3-yl)methyl)-2-fluoro-N-(methylsulfonyl)benzamide] |
| 210 nM | CC(C)N(C)c1ncc(Oc2cc(F)c(C(=O)NS(C)(=O)=O)cc2F)cc1Cl [Example 114, 4-({5-chloro-6-[isopropyl(methyl)amino]pyridin-3-yl}oxy)-2,5-difluoro-N-(methylsulfonyl)benzamide] |
| 540 nM | CCC(COC)Nc1ncc(Oc2cc(F)c(C(=O)NS(C)(=O)=O)cc2F)cc1Cl (stereo not shown) [Example 129, 4-[(5-chloro-6-{[1-(methoxymethyl)propyl]amino}pyridin-3-yl)oxy]-2,5-difluoro-N-(methylsulfonyl)benzamide] |
| 33 nM | CC1(COc2ncc(Oc3cc(F)c(C(=O)NS(C)(=O)=O)cc3F)cc2Cl)CC1 [Example 28, 4-({5-chloro-6-[(1-methylcyclopropyl)methoxy]pyridin-3-yl}oxy)-2,5-difluoro-N-(methylsulfonyl)benzamide] |
